Reference: PubChem BioAssay (NCI)
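These data come from cells grown in 96-well plates and exposed to compound for 48 hours at five concentrations. TGI: total growth inhibition.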

Assays:
Assay in all cases: growth of human tumour cells (NCI), 48 h
[1] = tested on: KM12 colon
[2] = tested on: SF-539 CNS
[3] = tested on: DMS 273 small cell lung
[4] = tested on: A498 renal
[5] = tested on: A549 NSCLC
[6] = tested on: UACC-257 melanoma
[7] = tested on: HL-60(TB) leukemia
[8] = tested on: HOP-18 NSCLC
[9] = tested on: OVCAR-3 ovarian
[10] = tested on: RXF 393 renal
[11] = tested on: OVCAR-4 ovarian
[12] = tested on: UO-31 renal
[13] = tested on: KM20L2 colon
[14] = tested on: COLO 205 colon
[15] = tested on: HCC-2998 colon
[16] = tested on: HCT-15 colon
[17] = tested on: 786-0 renal
[18] = tested on: OVCAR-8 ovarian
[19] = tested on: SF-295 CNS
[20] = tested on: XF 498 CNS
[21] = tested on: IGROV1 ovarian
[22] = tested on: CAKI-1 renal
[23] = tested on: DLD-1 colon
[24] = tested on: LXFL 529 NSCLC
[25] = tested on: SK-MEL-28 melanoma
[26] = tested on: LOX IMVI melanoma
[27] = tested on: UACC-62 melanoma
[28] = tested on: SW-620 colon
[29] = tested on: NCI-H522 lung
[30] = tested on: M14 melanoma
[31] = tested on: U251 CNS
[32] = tested on: SN12C renal
[33] = tested on: SK-OV-3 ovarian
[34] = tested on: DMS 114 small cell lung
[35] = tested on: MALME-3M melanoma
[36] = tested on: RPMI-8226 leukemia
[37] = tested on: NCI-H23 lung
[38] = tested on: CCRF-CEM leukemia
[39] = tested on: HOP-92 NSCLC
[40] = tested on: SF-268 CNS
[41] = tested on: SK-MEL-5 melanoma
[42] = tested on: EKVX NSCLC
[43] = tested on: NCI-H226 lung
[44] = tested on: HT29 colon
[45] = tested on: SK-MEL-2 melanoma
[46] = tested on: K-562 leukemia
[47] = tested on: OVCAR-5 ovarian
[48] = tested on: SNB-19 CNS
[49] = tested on: ACHN renal
[50] = tested on: RXF-631 renal
[51] = tested on: SNB-75 CNS
[52] = tested on: SNB-78 CNS
[53] = tested on: HOP-62 NSCLC
[54] = tested on: TK-10 renal
[55] = tested on: HCT-116 colon
[56] = tested on: NCI-H460 lung
[57] = tested on: MOLT-4 leukemia
[58] = tested on: M19-MEL melanoma

Cc1ccc(NC(=O)C(=O)CC(=O)C2CCOC2=O)c(C)c1 (configuration not stated)
TGI [1]: > 100 µM | TGI [2]: > 100 µM | TGI [3]: > 100 µM | TGI [4]: > 100 µM | TGI [5]: > 100 µM | TGI [6]: > 100 µM | TGI [7]: > 100 µM | TGI [8]: > 100 µM | TGI [9]: > 100 µM | TGI [10]: > 100 µM | TGI [11]: > 100 µM | TGI [12]: > 100 µM | TGI [13]: > 100 µM | TGI [14]: > 100 µM | TGI [15]: > 100 µM | TGI [16]: > 100 µM | TGI [17]: > 100 µM | TGI [18]: > 100 µM | TGI [19]: > 100 µM | TGI [20]: > 100 µM | TGI [21]: > 100 µM | TGI [22]: > 100 µM | TGI [23]: > 100 µM | TGI [24]: > 100 µM | TGI [25]: > 100 µM | TGI [26]: > 100 µM | TGI [27]: > 100 µM | TGI [28]: > 100 µM | TGI [29]: > 100 µM | TGI [30]: > 100 µM | TGI [31]: > 100 µM | TGI [32]: > 100 µM | TGI [33]: > 100 µM | TGI [34]: > 100 µM | TGI [35]: > 100 µM | TGI [36]: > 100 µM | TGI [37]: > 100 µM | TGI [38]: > 100 µM | TGI [39]: > 100 µM | TGI [40]: > 100 µM | TGI [41]: > 100 µM | TGI [42]: > 100 µM | TGI [43]: > 100 µM | TGI [44]: > 100 µM | TGI [45]: > 100 µM | TGI [46]: > 100 µM | TGI [47]: > 100 µM | TGI [48]: > 100 µM | TGI [49]: > 100 µM | TGI [50]: > 100 µM | TGI [51]: > 100 µM | TGI [52]: > 100 µM | TGI [53]: > 100 µM | TGI [54]: > 100 µM | TGI [55]: > 100 µM | TGI [56]: > 100 µM

O/N=C1/C(=C/c2ccc(Oc3ccccc3)cc2)CCCC1C(NO)c1ccc(Oc2ccccc2)cc1 (configuration not stated)
TGI [1]: > 100 µM | TGI [2]: > 100 µM | TGI [3]: > 100 µM | TGI [5]: > 100 µM | TGI [6]: > 100 µM | TGI [7]: 25.6 µM | TGI [8]: > 100 µM | TGI [9]: > 100 µM | TGI [10]: 52.2 µM | TGI [11]: > 100 µM | TGI [57]: 33.2 µM | TGI [12]: 76.4 µM | TGI [13]: 26.7 µM | TGI [14]: 35.8 µM | TGI [15]: > 100 µM | TGI [16]: > 100 µM | TGI [17]: > 100 µM | TGI [18]: > 100 µM | TGI [19]: > 100 µM | TGI [20]: > 100 µM | TGI [21]: > 100 µM | TGI [22]: 88.6 µM | TGI [23]: > 100 µM | TGI [24]: > 100 µM | TGI [25]: > 100 µM | TGI [26]: 29.1 µM | TGI [27]: > 100 µM | TGI [28]: > 100 µM | TGI [30]: > 100 µM | TGI [31]: > 100 µM | TGI [32]: 96.7 µM | TGI [58]: > 100 µM | TGI [33]: > 100 µM | TGI [34]: > 100 µM | TGI [35]: > 100 µM | TGI [36]: 76.1 µM | TGI [37]: 63.3 µM | TGI [38]: 61.2 µM | TGI [39]: 56.3 µM | TGI [40]: > 100 µM | TGI [41]: 36.7 µM | TGI [42]: > 100 µM | TGI [43]: > 100 µM | TGI [44]: 30.5 µM | TGI [45]: > 100 µM | TGI [46]: > 100 µM | TGI [47]: > 100 µM | TGI [48]: > 100 µM | TGI [49]: > 100 µM | TGI [50]: > 100 µM | TGI [51]: > 100 µM | TGI [52]: > 100 µM | TGI [53]: > 100 µM | TGI [54]: > 100 µM | TGI [55]: 24.6 µM | TGI [56]: > 100 µM
